According to PMC11109052, “Metabolism characterization and toxicity of N-hydap, a marine candidate drug for lung cancer therapy by LC–MS method” (Natural Products and Bioprospecting, 2024):

Key:
[1] = test system: HLMs; assay: Kinetics of N-hydap glucuronidation in HLMs; type: in vitro ADME, human; settings: HLM
Experimental: Various microsomes including HLMs, HKMs, HIMs, RLMs, RKMs, MLMs and MKMs were involved in CYP and UGT reactions of N-hydap. A typical CYP incubation mixture included 0.5 mg/mL microsomes protein, 3.3 mM glucose-6-phosphate, 3.3 mM MgCl2, 0.4 U/mL glucose-6-phosphate dehydrogenase, and N-hydap (1, 2.5, or 10 μM) in the 50 mM potassium phosphate buffer (KPI, pH 7.4). The incubation mixture was preincubated at 37 °C for 5 min, and the reaction was started by adding NADP to form a NADPH-regenerating system. Simultaneously, the classic UGT reaction system consisted of 50 mM KPI, 5 mM MgCl2, 0.5 mg/mL microsomes, 0.125 mg/mL alamethicin, and 5.25 mg/mL saccharolactone. The reaction was initiated after supplying UDPGA. The CYP and UGT mixtures were incubated at 37 °C in a shaking water bath (80 rpm) for 1.5 h to enhance metabolite formation. To terminate the reaction, an ice-cold solution of Tes (50 ng/mL, dissolved in methanol and used as an internal standard) was added to half of the mixture volume. […]
The substrate concentrations used for HLMs were 0.05, 0.5, 2, 2.5, 5, 10, 25, 50, and 100 μM. […] The rates of N-hydap-G by enzymes were expressed as nmol/mg/min, representing the amount of metabolites formed per minute per milligram of protein. Kinetic parameters were determined by analyzing the Eadie–Hofstee plots. […]

[2] = test system: Ugt1a1; assay: Real-time PCR mRNA level after 7 days gavage: Ugt1a1; type: in vivo, mice; design: key to UGT1A1 mNA expression: ↑: up-regulation; ↓: down-regulation; –: no change
Experimental: Mice were randomly divided into four groups, with eight animals in each group. The mice received oral pretreatment with N-hydap for 7 days at doses of 2, 5, and 10 mg/kg/day, which were considered as the low dose, medium dose, and high dose, respectively. Correspondingly, the control group received PBS. On the 8th day, the liver and kidneys were removed, and organs from eight mice per group were combined to prepare MLMs and MKMs using the detailed procedures above. Subsequently, we determined the activity of CYP and UGT enzymes by specific substrate metabolized with MLMs (0.5 mg/mL) and MKMs (0.2 mg/mL) in vitro. Specifically, the following selective substrates were used for the respective enzymes: PH (1 μM) for CYP1A2, DIC (1 μM) for CYP2C9, MP (90 μM) for CYP2C19, DM (1 μM) for CYP2D6, CZX (10 μM) for CYP2E1, Tes (1 μM) for CYP3A4, SN38 (1 μM) for UGT1A1, CACD (100 μM) for UGT1A3, Sero (20 μM) for UGT1A6, and Prop (1 μM) for UGT1A9. All substrates were dissolved in methanol or DMSO. The incubation procedure was carried out as mentioned above, and the reaction was terminated with VER (20 ng/mL) in ESI+ mode and CLP (200 ng/mL) in ESI− mode. In the ex vivo experiments, the activity of enzymes was measured by quantifying the production of various metabolites (nM/mg protein/min). The metabolites and their corresponding enzymes are as follows: APAP from PH, 4-OH-DIC from DIC, 4-OH-MP from MP, DXO from DM, 6-OH-CZX from CZX, 6-OH-Tes from Tes, SN38-G from SN38, CACD-G from CACD, Sero-G from Sero, Prop-G from Prop. The measurements were performed using multiple reaction monitoring (MRM) transitions, which are specific mass spectrometry transitions used for quantification. […]
Total RNA from liver and kidney samples taken after 7 days of N-hydap gavage was extracted using the Animal Total RNA Isolation Kit (Foregene, Chengdu, Sichuan, China) following the manufacturer’s instructions. The concentrations of total RNA were determined by a nucleic acid concentration tester at 260/280 nm. […]

[3] = test system: RoRγ; design: method as in PMID 35259480; settings: cited from earlier work
[4] = test system: UGT1A6; assay: DME activity ex vivo in MLMs and MKMs: UGT1A6 (Sero-G from Sero); design: species or system mice; key to UGT1A6 Enzymatic activity: ↑: up-regulation; ↓: down-regulation; –: no change
Experimental: Mice were randomly divided into four groups, with eight animals in each group. The mice received oral pretreatment with N-hydap for 7 days at doses of 2, 5, and 10 mg/kg/day, which were considered as the low dose, medium dose, and high dose, respectively. Correspondingly, the control group received PBS. On the 8th day, the liver and kidneys were removed, and organs from eight mice per group were combined to prepare MLMs and MKMs using the detailed procedures above. Subsequently, we determined the activity of CYP and UGT enzymes by specific substrate metabolized with MLMs (0.5 mg/mL) and MKMs (0.2 mg/mL) in vitro. Specifically, the following selective substrates were used for the respective enzymes: PH (1 μM) for CYP1A2, DIC (1 μM) for CYP2C9, MP (90 μM) for CYP2C19, DM (1 μM) for CYP2D6, CZX (10 μM) for CYP2E1, Tes (1 μM) for CYP3A4, SN38 (1 μM) for UGT1A1, CACD (100 μM) for UGT1A3, Sero (20 μM) for UGT1A6, and Prop (1 μM) for UGT1A9. All substrates were dissolved in methanol or DMSO. The incubation procedure was carried out as mentioned above, and the reaction was terminated with VER (20 ng/mL) in ESI+ mode and CLP (200 ng/mL) in ESI− mode. In the ex vivo experiments, the activity of enzymes was measured by quantifying the production of various metabolites (nM/mg protein/min). The metabolites and their corresponding enzymes are as follows: APAP from PH, 4-OH-DIC from DIC, 4-OH-MP from MP, DXO from DM, 6-OH-CZX from CZX, 6-OH-Tes from Tes, SN38-G from SN38, CACD-G from CACD, Sero-G from Sero, Prop-G from Prop. The measurements were performed using multiple reaction monitoring (MRM) transitions, which are specific mass spectrometry transitions used for quantification. The optimized parameters for each metabolite, such as declustering potential and collision energy, were described in Supplementary Table 1. All experiments were conducted in triplicate, to ensure accuracy and reproducibility.

CC1CCC2C(C=CC(C)C2C(=O)c2c(O)c(C3(O)CCC(O)C4OC43)cn(O)c2=O)C1 (centres unmarked) [N-hydap, N-Hydroxyapiosporamide]
Km [1]: 116 µM
UGT1A1 mNA expression ([2]; Kidney): ↓
UGT1A1 mNA expression ([2]; Liver): –
mRNA levels of Ugt1a1 ([2]; mice, 2, 5, 10 mg/kg p.o. 7 days, kidneys): slight reduction
action on RoRγ [3]: RoRγ antagonist
UGT1A6 Enzymatic activity ([4]; Kidney): –
UGT1A6 Enzymatic activity ([4]; Liver): ↓
reduction of formation rate of Sero-G vs control ([4]; liver microsomes of mice pretreated 7 days p.o.): 72%
